Laboratory results reported in US10112941B2, “Tricyclic compounds as anticancer agents” (BRISTOL-MYERS SQUIBB COMPANY, priority 2013, dated 2018).

molecular target: BRD4 (Homo sapiens, UniProt O60885); assay: Time Resolved Fluorescence Resonance Energy Transfer (TR-FRET) binding assay, BRD4; details: one of the FRET assays described; read-out: FRET BRD4 IC50

`Cc1nnn(C)c1-c1cnc2c3c(S(C)(=O)=O)cccc3n([C@H](c3ccccc3F)C3CCOCC3)c2c1` [Example 269] and `Cc1nnn(C)c1-c1cnc2c3c(F)ccc(S(C)(=O)=O)c3n([C@H](c3ccccc3)C3CCOCC3)c2c1` [Example 181, 5-{9-Fluoro-6-methanesulfonyl-5-[(S)-oxan-4-yl(phenyl)methyl]-5H-pyrido[3,2-b]indol-3-yl}-1,4-dimethyl-1H-1,2,3-triazole] cannot be ordered by IC50: < 5 nM for the first, < 5 nM for the second.

`Cc1ccc([C@H](C2CCOCC2)n2c3cc(CS(C)(=O)=O)ccc3c3ncc(-c4c(C)nnn4C)cc32)nc1` [Example 338] and `COc1ccnc([C@H](C2CCOCC2)n2c3cc(CS(C)(=O)=O)ccc3c3ncc(-c4c(C)nnn4C)cc32)c1` [Example 336] cannot be ordered by IC50: < 5 nM for the first, < 5 nM for the second.

`Cc1nnn(C)c1-c1cnc2c3ccc(C(C)(O)C4CC4)cc3n([C@H](c3ccccc3)C3CCOCC3)c2c1` (single isomer, unassigned) [Example 423] and `Cc1nnn(C)c1-c1cnc2c3cc(F)c(C(C)(O)C4CC4)cc3n([C@H](c3ccccc3)C3CCOCC3)c2c1` (single isomer, unassigned) [Example 443] cannot be ordered by IC50: < 5 nM for the first, < 5 nM for the second.

`Cn1nncc1-c1cnc2c3ccc(C(C)(C)O)cc3n(C(c3ccc(F)cc3)C3CCOCC3)c2c1` (single isomer, unassigned) [Example 67, 2-{5-[(4-Fluorophenyl)(oxan-4-yl)methyl]-3-(1-methyl-1H-1,2,3-triazol-5-yl)-5H-pyrido[3,2-b]indol-7-yl}propan-2-ol] and `Cc1nnn(C)c1-c1cnc2c3ccc(C(C)(C)O)cc3n(C(c3cccc(F)c3)C3CCOCC3)c2c1` (single isomer, unassigned) [Example 101, 2-[3-(Dimethyl-1H-1,2,3-triazol-5-yl)-5-[(3-fluorophenyl)(oxan-4-yl)methyl]-5H-pyrido[3,2-b]indol-7-yl]propan-2-ol] cannot be ordered by IC50: < 25 nM for the first, < 25 nM for the second.

`Cc1nnn(C)c1-c1cnc2c3ccc(C(C)(C)O)cc3n(C(c3cc(F)cc(F)c3)C3CCOCC3)c2c1` (single isomer, unassigned) [Example 98, 2-{5-[(3,5-Difluorophenyl)(oxan-4-yl)methyl]-3-(dimethyl-1H-1,2,3-triazol-5-yl)-5H-pyrido[3,2-b]indol-7-yl}propan-2-ol] and `Cc1noc(C)c1-c1cnc2c3ccc(C(C)(C)O)cc3n(C(c3cc(F)cc(F)c3)C3CCOCC3)c2c1` (single isomer, unassigned) [Example 130, 2-{5-[(3,5-Difluorophenyl)(oxan-4-yl)methyl]-3-(dimethyl-1,2-oxazol-4-yl)-5H-pyrido[3,2-b]indol-7-yl}propan-2-ol] cannot be ordered by IC50: < 5 nM for the first, < 5 nM for the second.

`[2H]C([2H])([2H])c1nnn(C)c1-c1cnc2c3c(F)cc(S(C)(=O)=O)cc3n(C(c3ccccc3)C3CCC(F)(F)CC3)c2c1` (single isomer, unassigned) [Example 200, 5-{5-[(4,4-Difluorocyclohexyl)(phenyl)methyl]-9-fluoro-7-methanesulfonyl-5H-pyrido[3,2-b]indol-3-yl}-4-(^2H3)methyl-1-methyl-1H-1,2,3-triazole] and `[2H]C([2H])([2H])c1nnn(C)c1-c1cnc2c3c(S(C)(=O)=O)cc(F)c(OC)c3n([C@H](c3ccccc3)C3CCOCC3)c2c1` [Example 163, 5-{7-Fluoro-9-methanesulfonyl-6-methoxy-5-[(S)-oxan-4-yl(phenyl)methyl]-5H-pyrido[3,2-b]indol-3-yl}-4-(^2H3)methyl-1-methyl-1H-1,2,3-triazole] cannot be ordered by IC50: < 5 nM for the first, < 5 nM for the second.

`[2H]C([2H])([2H])c1nnn(C)c1-c1cnc2c3c(N)ccc(S(C)(=O)=O)c3n([C@H](c3ccccc3)C3CCOCC3)c2c1` [Example 227, 6-Methanesulfonyl-3-[4-(^2H3)methyl-1-methyl-1H-1,2,3-triazol-5-yl]-5-[(S)-oxan-4-yl(phenyl)methyl]-5H-pyrido[3,2-b]indol-9-amine] and `[2H]C([2H])([2H])c1nnn(C)c1-c1cnc2c3c(F)ccc(S(C)(=O)=O)c3n([C@H](c3ccccc3F)C3CCOCC3)c2c1` [Example 231, 5-{9-Fluoro-5-[(S)-(2-fluorophenyl)(oxan-4-yl)methyl]-6-methanesulfonyl-5H-pyrido[3,2-b]indol-3-yl}-4-(^2H3)methyl-1-methyl-1H-1,2,3-triazole] cannot be ordered by IC50: < 5 nM for the first, < 5 nM for the second.

`Cc1nnn(C)c1-c1cnc2c3c(F)cc(C(C)(C)O)cc3n(C(c3cccc(F)c3)C3CCOCC3)c2c1` (single isomer, unassigned) [Example 112, 2-[3-(Dimethyl-1H-1,2,3-triazol-5-yl)-9-fluoro-5-[(3-fluorophenyl)(oxan-4-yl)methyl]-5H-pyrido[3,2-b]indol-7-yl]propan-2-ol] and `Cc1nnn(C)c1-c1cnc2c3ccc(C(C)(C)O)cc3n([C@@H](c3ccccc3F)C3CCOCC3)c2c1` [Example 93, 2-[3-(dimethyl-1H-1,2,3-triazol-5-yl)-5-[(R)-oxan-4-yl(2-fluorophenyl)(^2H)methyl]-5H-pyrido[3,2-b]indol-7-yl]propan-2-ol] cannot be ordered by IC50: < 5 nM for the first, < 5 nM for the second.

`[2H]C([2H])([2H])c1nnn(C)c1-c1cnc2c3ccc(C(C)(C)O)c(F)c3n(C(c3cc(C)on3)C3CCOCC3)c2c1` (single isomer, unassigned) [Example 314] and `Cc1nnn(C)c1-c1cnc2c3ccc(C(C)(C)O)c(F)c3n(C(c3ncccc3F)C3CCOCC3)c2c1` (single isomer, unassigned) [Example 305] cannot be ordered by IC50: < 5 nM for the first, < 5 nM for the second.

`[2H]C([2H])([2H])c1nnn(C)c1-c1cnc2c3cc(F)c(C(C)(C)O)cc3n(C(c3cc(OC)ccn3)C3CCOCC3)c2c1` (single isomer, unassigned) [Example 325] and `[2H]C([2H])([2H])c1nnn(C)c1-c1cnc2c3ccc(C(C)(C)O)cc3n(C(c3ncccc3F)C3CCOCC3)c2c1` (single isomer, unassigned) [Example 315] cannot be ordered by IC50: < 5 nM for the first, < 5 nM for the second.

`Cc1noc(C)c1-c1cnc2c3ccc(C(C)(C)O)cc3n(Cc3ccc(F)cc3)c2c1` [Example 48] and `Cc1noc(C)c1-c1cnc2c3ccc(C(C)(C)O)cc3n(C(c3cccc(F)c3)C3CCOCC3)c2c1` (single isomer, unassigned) [Example 147, 2-[3-(Dimethyl-1,2-oxazol-4-yl)-5-[(3-fluorophenyl)(oxan-4-yl)methyl]-5H-pyrido[3,2-b]indol-7-yl]propan-2-ol] cannot be ordered by IC50: < 25 nM for the first, < 5 nM for the second.

`Cc1cc(C(C2CCOCC2)n2c3cc(C(C)(C)O)ccc3c3ncc(-c4c(C)noc4C)cc32)no1` (single isomer, unassigned) [Example 307] and `Cc1noc(C)c1-c1cnc2c3ccc(C(C)(C)O)cc3n([C@H](c3ccccn3)C3CCOCC3)c2c1` [Example 21] cannot be ordered by IC50: < 25 nM for the first, < 5 nM for the second.

`Cc1nnn(C)c1-c1cnc2c3ccc(C(C)(C)O)c(F)c3n(C(c3ccccc3)C3CCOCC3)c2c1` (single isomer, unassigned) [Example 71, 2-[3-(Dimethyl-1H-1,2,3-triazol-5-yl)-6-fluoro-5-[oxan-4-yl(phenyl)methyl]-5H-pyrido[3,2-b]indol-7-yl]propan-2-ol] and `Cc1nnn(C)c1-c1cnc2c3ccc(C(C)(C)O)cc3n([C@@H](c3ccccc3F)C3CCOCC3)c2c1` [Example 77] cannot be ordered by IC50: < 5 nM for the first, < 5 nM for the second.

`[2H]C([2H])([2H])c1nnn(C)c1-c1cnc2c3c(OC)cc(S(C)(=O)=O)cc3n(C(c3ncccc3F)C3CCOCC3)c2c1` (stereo not drawn) [Example 208, 3-Fluoro-2-[{7-methanesulfonyl-9-methoxy-3-[4-(^2H3)methyl-1-methyl-1H-1,2,3-triazol-5-yl]-5H-pyrido[3,2-b]indol-5-yl}(oxan-4-yl)methyl]pyridine] and `[2H]C([2H])([2H])c1nnn(C)c1-c1cnc2c3c(OCC(C)(F)F)ccc(S(C)(=O)=O)c3n(C(c3ncccc3F)C3CCOCC3)c2c1` (stereo not drawn) [Example 247, 2-{[9-(2,2-Difluoropropoxy)-6-methanesulfonyl-3-[4-(^2H3)methyl-1-methyl-1H-1,2,3-triazol-5-yl]-5H-pyrido[3,2-b]indol-5-yl](oxan-4-yl)methyl}-3-fluoropyridine] cannot be ordered by IC50: < 5 nM for the first, < 5 nM for the second.

`Cn1nnc(CO)c1-c1cnc2c3ccc(C(C)(C)O)cc3n([C@H](c3ccccc3)C3CCOCC3)c2c1` [Example 88, (S)-2-(3-(4-(Hydroxymethyl)-1-methyl-1H-1,2,3-triazol-5-yl)-5-(phenyl(tetrahydro-2H-pyran-4-yl)methyl)-5H-pyrido[3,2-b]indol-7-yl)propan-2-ol] and `Cc1cccc(C(C2CCOCC2)n2c3cc(C(C)(C)O)ccc3c3ncc(-c4c(C)nnn4C)cc32)n1` (single isomer, unassigned) [Example 295] cannot be ordered by IC50: < 5 nM for the first, < 5 nM for the second.

`Cc1noc(C)c1-c1cnc2c3ccc(C4(O)COC4)cc3n([C@H](c3ccccc3)C3CCOCC3)c2c1` [Example 244, 3-[3-(Dimethyl-1,2-oxazol-4-yl)-5-[(S)-oxan-4-yl(phenyl)methyl]-5H-pyrido[3,2-b]indol-7-yl]oxetan-3-ol] and `Cc1noc(C)c1-c1cnc2c3ccc(CC(C)(C)O)cc3n([C@H](c3ccccc3)C3CCOCC3)c2c1` [Example 252, 1-[3-(Dimethyl-1,2-oxazol-4-yl)-5-[(S)-oxan-4-yl(phenyl)methyl]-5H-pyrido[3,2-b]indol-7-yl]-2-methylpropan-2-ol] cannot be ordered by IC50: < 5 nM for the first, < 5 nM for the second.

`Cc1noc(C)c1-c1cnc2c3ccc(C(C)(C)O)cc3n(C(c3ccc(F)c(F)c3)C3CCOCC3)c2c1` (single isomer, unassigned) [Example 141, 2-{5-[(3,4-Difluorophenyl)(oxan-4-yl)methyl]-3-(dimethyl-1,2-oxazol-4-yl)-5H-pyrido[3,2-b]indol-7-yl}propan-2-ol] and `Cc1noc(C)c1-c1cnc2c3ccc(C(C)(C)O)cc3n(CC3CCC(F)(F)CC3)c2c1` [Example 49] cannot be ordered by IC50: < 25 nM for the first, < 5 nM for the second.

`Cc1nnn(C)c1-c1cnc2c3ccc(NC(=O)OC(C)C)cc3n([C@H](c3ccccc3)C3CCOCC3)c2c1` [Example 367, Propan-2-yl N-[3-(dimethyl-1H-1,2,3-triazol-5-yl)-5-[(S)-oxan-4-yl(phenyl)methyl]-5H-pyrido[3,2-b]indol-7-yl]carbamate] and `Cc1noc(C)c1-c1cnc2c3ccc(S(C)(=O)=O)cc3n(C(CCC(F)(F)F)c3ccccc3)c2c1` (single isomer, unassigned) [Example 38, 4-[7-Methanesulfonyl-5-(4,4,4-trifluoro-1-phenylbutyl)-5H-pyrido[3,2-b]indol-3-yl]-3,5-dimethyl-1,2-oxazole] cannot be ordered by IC50: < 5 nM for the first, < 25 nM for the second.
